According to article PMC3133734 (Journal of medicinal chemistry, 2011):
Marks after values point to notes of the source that are not given here.

What was measured:
[1] = test system: HIV-1 virus strain RF in CEM-SS cells; assay: HIV-1 cytopathicity assay; type: cell-based; details: HIV-1RF
[2] = biological target: RNase H-deficient p66^DA/p51 HIV-1 RT (Human immunodeficiency virus type 1 group M subtype B, UniProt P04585, D1136A); assay: DNA-dependent DNA polymerase assay, RNase H mutant p66^D549A/p51; type: biochemical; details: inhibitor 20 µM
[3] = biological target: RNase H-deficient p66^EQ/p51 HIV-1 RT (Human immunodeficiency virus type 1 group M subtype B, UniProt P04585, E1065Q); assay: DNA-dependent DNA polymerase assay, RNase H mutant p66^E478Q/p51; type: biochemical; details: inhibitor 20 µM

2,7-dihydroxy-4-isopropyl-cyclohepta-2,4,6-triene [β-Thujaplicinol, reference compound]
protection against the cytopathic effect of HIV (in words) [1]: no protection against the cytopathic effect of HIV

Cc1cc(O)c(=O)c(O)c2c1C[C@@H](C(C)(O)CN1CCCCC1)CC2 (mixture of isomers) [Compound 1, 5,7-Dihydroxy-2-(1-hydroxy-1-methyl-2-piperidin-1-yl-ethyl)-9-methyl-1,2,3,4-tetrahydro benzocyclohepten-6-one]
In vitro therapeutic index (CC50/EC50) [1]: 4.9
protection against the cytopathic effect of HIV (in words) [1]: protection against the cytopathicity of the virus

Cc1cc(O)c(=O)c(O)c2c1C[C@@H](C(C)(O)Cn1ccnc1)CC2 (mixture of isomers) [Compound 2, 5,7-Dihydroxy-2-(1-hydroxy-2-imadazol-1-yl-1-methyl-ethyl)-9-methyl-1,2,3,4-tetrahydro benzocyclohepten-6-one]
protection against the cytopathic effect of HIV (in words) [1]: protection against the cytopathicity of the virus

CCN(CC)CC(C)(O)[C@H]1CCc2c(c(C)cc(O)c(=O)c2O)C1 (mixture of isomers) [Compound 3, 2-(2-Diethylamino-1-hydroxy-1-methyl-ethyl)-5,7-dihydroxy-9-methyl-1,2,3,4-tetrahydrobenzocyclohepten-6-one]
protection against the cytopathic effect of HIV (in words) [1]: slight protection against cytopathicity
Viral Replication EC50 column, protective effect class ([1]; highest concentration 50 µM): < 50% ^c

Cc1cc(O)c(=O)c(O)c2c1C[C@@H](C(C)(O)CNCc1ccccc1F)CC2 (mixture of isomers) [Compound 4, 2-[2-(2-Fluoro-benzylamino)-1-hydroxy-1-methyl-ethyl]-5,7-dihydroxy-9-methyl-1,2,3,4-tetrahydrobenzocyclohepten-6-one]
protection against the cytopathic effect of HIV (in words) [1]: no protection against virus cytopathicity

Cc1cc(O)c(=O)c(O)c2c1C[C@@H](C(C)(O)CNc1ccccc1)CC2 (mixture of isomers) [Compound 5, 5,7-Dihydroxy-2-(1-hydroxy-1-methyl-2-phenylamino-ethyl)-9-methyl-1,2,3,4-tetrahydrobenzocyclohepten-6-one]
inhibition of DNA-dependent DNA polymerase activity (in words) [2]: significantly and consistently inhibited
inhibition of DNA-dependent DNA polymerase activity (in words) [3]: significantly and consistently inhibited
protection against the cytopathic effect of HIV (in words) [1]: protection against the cytopathicity of the virus

CCSCC(C)(O)[C@H]1CCc2c(c(C)cc(O)c(=O)c2O)C1 (mixture of isomers) [Compound 6, 2-(2-Ethylsulfanyl-1-hydroxy-1-methyl-ethyl)-5,7-dihydroxy-9-methyl-1,2,3,4-tetrahydrobenzocyclohepten-6-one]
protection against the cytopathic effect of HIV (in words) [1]: slight protection against cytopathicity

Cc1cc(O)c(=O)c(O)c2c1C[C@@H](C(C)(O)CSc1ccccc1)CC2 (mixture of isomers) [Compound 7, 5,7-Dihydroxy-2-(1-hydroxy-1-methyl-2-phenylsulfanyl-ethyl)-9-methyl-1,2,3,4-tetrahydrobenzocyclohepten-6-one]
protection against the cytopathic effect of HIV (in words) [1]: protection against the cytopathicity of the virus

Cc1cc(O)c(=O)c(O)c2c1C[C@@H](C(C)(O)CSCc1ccccc1)CC2 (mixture of isomers) [Compound 8, 2-(2-Benzylsulfanyl-1-hydroxy-1-methyl-ethyl)-5,7-dihydroxy-9-methyl-1,2,3,4-tetrahydrobenzocyclohepten-6-one]
protection against the cytopathic effect of HIV (in words) [1]: protection against the cytopathicity of the virus

CCS(=O)(=O)CC(C)(O)[C@H]1CCc2c(c(C)cc(O)c(=O)c2O)C1 (mixture of isomers) [Compound 9, 2-(2-Ethanesulfonyl-1-hydroxy-1-methyl-ethyl)-5,7-dihydroxy-9-methyl-1,2,3,4-tetrahydrobenzocyclohepten-6-one]
protection against the cytopathic effect of HIV (in words) [1]: slight protection against cytopathicity

Cc1cc(O)c(=O)c(O)c2c1C[C@@H](C(C)O)CC2 (mixture of isomers) [Compound 13, 5,7-Dihydroxy-2-(1-hydroxy-ethyl)-9-methyl-1,2,3,4-tetrahydrobenzocyclohepten-6-one]
protection against the cytopathic effect of HIV (in words) [1]: protection against the cytopathicity of the virus

Cc1cc(O)c(=O)c(O)c2c1C[C@@H](C(C)NCc1ccccc1)CC2 (mixture of isomers) [Compound 14, 2-(1-Benzylamino-ethyl)-5,7-Dihydroxy-9-methyl-1,2,3,4-tetrahydrobenzocyclohepten-6-one]
protection against the cytopathic effect of HIV (in words) [1]: protection against the cytopathicity of the virus

Cc1cc(O)c(=O)c(O)c2c1CC(C(C)(O)CO)CC2 (stereo not drawn) [Compound 12, 2-(1,2-Dihydroxy-1-methyl-ethyl)-5,7-dihydroxy-9-methyl-1,2,3,4-tetrahydrobenzocyclohepten-6-one]
protection against the cytopathic effect of HIV (in words) [1]: no protection against virus cytopathicity

C=C(C)[C@H]1CCc2c(c(C)cc(O)c(=O)c2O)C1 [Manicol, 5,7-dihydroxy-2-isopropenyl-9-methyl-1,2,3,4-tetrahydro-benzocyclohepten-6-one, reference compound]
protection against the cytopathic effect of HIV (in words) [1]: no protection against the cytopathic effect of HIV
